Experimental data reported in patent US10300048B2, “Thiazolidinones as cellular anandamide uptake inhibitors and their use in the treatment of psychiatric or neurological disorders and inflammation, in particular neuroinflammation” (UNIVERSITAT BERN, priority 2014, dated 2019).
Read-outs that look alike come from different tables or passages of the source.

Experiments:
CB1 receptor = conditions: literature values of reference substances; cited from earlier work
[1] = tested on: AEA cellular uptake, U937 cells; assay: [3H]-AEA cellular uptake inhibition in U937 cells; assay type: cell-based; conditions: Table 1, U937 cells, 100 nM AEA, read-out: AEA uptake inhibition IC50
Procedure: [^3H]-AEA Cellular Uptake
Screening for AEA cellular uptake inhibition was performed in a semi-automated procedure: Pipetting and washing steps were performed by a Biomek3000 laboratory workstation. First, required amounts of U937 cells were centrifuged at 100×g for 5 min and resuspended in RPMI (37° C.) to a final concentration of 2×10^6 cells/mL. Then, 250 μL of cell suspension (0.5×10^6 cells per sample) were transferred into AquaSil™ silanized glass vials (Chromacol 1.1-MTV) in 96-well format. After addition of 5 μL vehicle (DMSO) or compounds the cells were incubated at 37° C. for 15 min. As positive controls OMDM-2 and UCM707 were used at 10 μM in each run. The ETI-T compounds were measured at up to 7 concentrations in triplicates from 100 pM-100 μM. After pre-incubation, a mixture of 0.5 nM[ethanolamine-1-^3H]-AEA, (60 Ci/mmol) and 99.5 nM of cold AEA (final 100 nM) was added and samples were incubated at 37° C. for another 15 min. The reaction was stopped by rapid filtration over UniFilter-96 GF/C filters (PerkinElmer) pre-soaked with PBS 0.25% BSA. Cells were washed three times with 100 μL ice-cold PBS buffer containing 1% fatty acid free BSA. After drying, 45 μL MicroScint 20 scintillation cocktail (PerkinElmer, Waltham, Mass., US) was added to the wells and the plate was sealed. Radioactivity was measured by liquid scintillation counting on a PerkinElmer Wallac Trilux MicroBeta 1450 during 2 min. Non-specific binding of [^3H]AEA (100 nM) to the glass vials was never higher than 10%. IC50 values were calculated by GraphPad® by non-linear regression using the built-in log(inhibitor) vs. response-variable slope (four parameters) function.
(§1) Statistical analysis and IC50 values were determined using GraphPad® Prism 5.0 (GraphPad® Software, San Diego, Calif., US). Inhibition curves were obtained by non-linear regression using the built-in log(inhibitor) vs. response-variable slope (four parameters) function. Results were calculated as % of vehicle control of the corresponding fraction (cells, aqueous phase) if not mentioned else. In vivo results are shown in absolute values and were analyzed by a one-way ANOVA following a Tukey's multiple comparison test or student's t-test. If not indicated else the results were compared vs. vehicle (CTRL). *** P<0.001, ** P<0.01, * P<0.05, ns=not significant P>0.05.

FAAH = FAAH (Homo sapiens (Human), UniProt O00519); assay: FAAH activity: hydrolysis of [3H]-AEA in U937 cell homogenates; assay type: biochemical; conditions: Table 2; U937 cell homogenate; read-out: FAAH inhibition IC50
Chain of FAAH (O00519 whole entry): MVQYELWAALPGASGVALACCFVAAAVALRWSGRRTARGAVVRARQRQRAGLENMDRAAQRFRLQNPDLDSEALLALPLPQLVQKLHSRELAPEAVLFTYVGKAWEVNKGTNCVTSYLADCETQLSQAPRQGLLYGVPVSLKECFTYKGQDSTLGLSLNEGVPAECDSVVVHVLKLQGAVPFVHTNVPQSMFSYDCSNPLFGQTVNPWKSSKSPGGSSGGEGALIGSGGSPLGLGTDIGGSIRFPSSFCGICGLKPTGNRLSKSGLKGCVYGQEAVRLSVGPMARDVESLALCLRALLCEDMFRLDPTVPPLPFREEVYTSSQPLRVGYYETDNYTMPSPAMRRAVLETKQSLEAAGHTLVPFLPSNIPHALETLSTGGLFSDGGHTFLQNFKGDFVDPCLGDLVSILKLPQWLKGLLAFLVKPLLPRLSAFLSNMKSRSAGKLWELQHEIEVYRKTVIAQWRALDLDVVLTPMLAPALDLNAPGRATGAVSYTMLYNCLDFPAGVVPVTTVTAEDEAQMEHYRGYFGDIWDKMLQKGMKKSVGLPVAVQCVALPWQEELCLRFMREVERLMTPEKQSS
Procedure: Hydrolysis of [^3H]-AEA by FAAH was determined as previously described in cell homogenates of U937 cells (0.18 mg protein) (Omeir et al., 1999, Biochem Biophys Res Commun, 264, 316-20; Mor et al., 2004, J Med Chem, 47, 4998-5008). Protein amounts of cell homogenates corresponded to 0.5×10^6 cells (U937), to assure best possible comparability of IC50 values as used for the AEA cellular uptake assays. URB597 was used as positive control. Protein quantification was performed using a BCA assay (Thermo Scientific). Enzyme activity was assessed by addition of vehicle or compounds in 10 μL DMSO to 490 μL homogenate in 10 mM Tris HCl, 1 mM EDTA, 0.1% (w/v) BSA fatty acid free, pH=8 and incubation for 15 min at 37° C. After, a mixture of AEA plus [ethanolamine-1-^3H]-AEA (0.5 nM) at final 100 nM was added to the homogenates and incubated for 15 min at 37° C. The reaction was stopped by addition of 1 mL ice-cold CHCl3:MeOH (1:1) followed by vigorous vortexing. Phase separation was achieved by centrifugation at 10′000×g at 4° C. for 10 min. Radioactivity of the separated aqueous phase (upper phase) containing [^3H-ethanolamine] or [^3H-glycerol] was measured by liquid scintillation counting on a Tri-Carb 2100 TR liquid scintillation analyzer after addition of 3.5 mL Ultima Gold scintillation cocktail (PerkinElmer Life Sciences). Results are expressed as hydrolysis of tritium substrate in percent of vehicle treated control. IC50 values were calculated by GraphPad®. Data are reported as means of n=3 independent experiments performed in triplicates.
as §1

Row | Compound | Ki (CB1 receptor) [µM] | IC50 ([1]; Homo sapiens, U-937) [µM] | IC50 (FAAH) [µM] | IC50 [1] [µM]
1 | CCCCCCCC/C=C\CCCCCCCC(=O)N[C@@H](CO)c1ccc(O)cc1 [OMDM-2, (R)—N-(1-(4-hydroxyphenyl)-2-hydroxyethyl)oleamide, reference compound] | 5.1 | 3.9 |  | 
2 | CCCCC/C=C\C/C=C\C/C=C\C/C=C\CCCC(=O)NCc1ccoc1 [UCM707, N-(3-furanylmethyl)-(5Z,8Z,11Z,14Z)-eicosatetraenamide, reference compound] | > 1 |  | 8.3 | 1.9
